Laboratory results: publication PMC6155837, “Design, Synthesis, and Biological Evaluation of a New Series of Biphenyl/Bibenzyl Derivatives Functioning as Dual Inhibitors of Acetylcholinesterase and Butyrylcholinesterase” (Molecules : A Journal of Synthetic Chemistry and Natural …, 2017)
Where two headings read alike, the source gives them in different places.

How the values were obtained:
AChE (from rat brain) = molecular target: T1, AChE (from rat brain) (Rattus norvegicus, UniProt P37136); test: biochemical; assay type: biochemical
T1 construct: rat AChE purified from the rat brain; from tissue; host or cells: rat brain
T1 sequence (P37136 32-614): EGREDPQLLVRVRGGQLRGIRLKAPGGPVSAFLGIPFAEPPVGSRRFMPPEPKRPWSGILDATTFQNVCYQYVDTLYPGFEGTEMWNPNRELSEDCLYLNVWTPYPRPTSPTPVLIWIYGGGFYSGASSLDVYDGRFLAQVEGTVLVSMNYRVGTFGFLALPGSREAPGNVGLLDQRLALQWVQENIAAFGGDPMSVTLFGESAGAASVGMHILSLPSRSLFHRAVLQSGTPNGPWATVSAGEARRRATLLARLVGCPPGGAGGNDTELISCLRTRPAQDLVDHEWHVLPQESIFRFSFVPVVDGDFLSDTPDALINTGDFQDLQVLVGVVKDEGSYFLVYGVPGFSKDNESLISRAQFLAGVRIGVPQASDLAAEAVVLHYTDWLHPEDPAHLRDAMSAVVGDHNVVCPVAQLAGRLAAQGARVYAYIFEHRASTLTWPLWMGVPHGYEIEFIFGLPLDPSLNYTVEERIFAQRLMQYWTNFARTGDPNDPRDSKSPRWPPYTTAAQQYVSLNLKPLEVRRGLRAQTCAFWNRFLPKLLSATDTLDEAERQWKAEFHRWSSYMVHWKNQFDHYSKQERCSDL
Protocol: (§1) All of the assay of acetylcholinesterase (AChE) and butyrylcholinesterase (BuChE) were performed according to the method described by Ellman et al. using the rat AChE purified from the rat brain and human BuChE purified by human serum. In an enzymatic reaction medium contained different concentration of tested compounds and AChE suspended in the phosphate buffer solution at pH 7.2. After 30 min at room temperature, acetylthiocholine iodide and 5.5′-dithiobis-2-nitrobenzoic acid (DNTB) were added and the reaction mixture incubated at 37 °C for 60 min. […] The parallel control experiment was carried without tested compounds in the reaction mixture. For BuChE inhibitory assay, the procedure described above was followed except for the use of enzyme and substrate, instead of which butyrylcholinesterase and butyrylthiocholine chloride were used, respectively. Assays were done with a blank containing all compounds except AChE or BuChE in order to account for nonenzymatic reactions. Each inhibitory test was conducted in triplicate. […] Each concentration was assayed in triplicate and data were expressed as the mean ± SEM.

BuChE (from human serum) = molecular target: T2, BuChE (from human serum) (Homo sapiens, UniProt P06276); test: biochemical
T2 construct: human BuChE purified by human serum; from tissue; host or cells: human serum
T2 sequence (P06276 29-602): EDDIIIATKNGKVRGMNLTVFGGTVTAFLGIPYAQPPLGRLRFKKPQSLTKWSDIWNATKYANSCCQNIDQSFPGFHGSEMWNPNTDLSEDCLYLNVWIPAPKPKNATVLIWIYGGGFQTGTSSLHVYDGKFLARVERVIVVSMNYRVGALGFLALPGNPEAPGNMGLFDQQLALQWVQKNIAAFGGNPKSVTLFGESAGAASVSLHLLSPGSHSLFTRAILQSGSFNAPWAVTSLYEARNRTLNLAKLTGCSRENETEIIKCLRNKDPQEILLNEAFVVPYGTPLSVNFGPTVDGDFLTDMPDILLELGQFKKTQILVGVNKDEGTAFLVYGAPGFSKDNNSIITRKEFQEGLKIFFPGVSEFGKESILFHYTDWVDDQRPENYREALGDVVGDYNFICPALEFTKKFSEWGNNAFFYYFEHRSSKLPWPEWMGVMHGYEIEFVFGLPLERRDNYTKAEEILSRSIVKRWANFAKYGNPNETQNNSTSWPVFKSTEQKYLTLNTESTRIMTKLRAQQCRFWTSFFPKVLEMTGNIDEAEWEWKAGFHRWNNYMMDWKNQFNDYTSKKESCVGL
Protocol: as §1

[1] = AChE from rat brain, footnote d: inactive up to 100 µM/L, read-out: IC50 µM ± SEM AChE
[2] = BuChE from human serum, means ± SEM of three experiments, read-out: IC50 µM ± SEM BuChE
[3] = AChE from rat brain, means ± SEM of three experiments, read-out: IC50 µM ± SEM AChE

SMILES | IC50 (AChE (from rat brain)) [µM] | IC50 (BuChE (from human serum)) [µM] | other results
CN(C)CCC(=O)c1ccc(-c2ccc(C(=O)CCN(C)C)cc2)cc1 [Compound 1, 4,4′-bi-(β-dimethylamino-propinoyl)-biphenyl] | 0.75 | 0.19 | 
CN(C)CC(=O)c1ccc(-c2ccc(C(=O)CN(C)C)cc2)cc1 [Compound 12, 1,1′-([1,1′-Biphenyl]-4,4′-diyl)bis(2-(dimethylamino)ethanone)] |  |  | IC50 (AChE (from rat brain); [1]): > 100 µM; IC50 (BuChE (from human serum); [2]): 91.7 ± 15.7 µM
O=C(CN1CCCCC1)c1ccc(-c2ccc(C(=O)CN3CCCCC3)cc2)cc1 [Compound 13, 1,1′-([1,1′-Biphenyl]-4,4′-diyl)bis(2-(piperidin-1-yl)ethanone)] |  | 71.7 ± 3.01 | IC50 (AChE (from rat brain); [1]): > 100 µM
O=C(CN1CCOCC1)c1ccc(-c2ccc(C(=O)CN3CCOCC3)cc2)cc1 [Compound 14, 1,1′-([1,1′-Biphenyl]-4,4′-diyl)bis(2-morpholinoethanone)] | > 100 |  | IC50 (BuChE (from human serum); [2]): 1.44 ± 0.23 µM
CCN(CC)CCC(=O)c1ccc(-c2ccc(C(=O)CCN(CC)CC)cc2)cc1 [Compound 15, 4,4′-Bis(β-diethylamino-propinoyl)-biphenyl] | 1.18 ± 0.29 | 0.74 ± 0.09 | 
CCCN(CCC)CCC(=O)c1ccc(-c2ccc(C(=O)CCN(CCC)CCC)cc2)cc1 [Compound 16, 4,4′-Bis(β-dipropylamino-propinoyl)-biphenyl] | 0.88 ± 0.17 | 2.83 ± 0.5 | 
O=C(CCN1CCC1)c1ccc(-c2ccc(C(=O)CCN3CCC3)cc2)cc1 [Compound 17, 4,4′-Bis(β-azetidin-propinoyl)-biphenyl] | 0.71 ± 0.06 | 2.39 ± 0.75 | 
O=C(CCN1CCCC1)c1ccc(-c2ccc(C(=O)CCN3CCCC3)cc2)cc1 [Compound 18, 4,4′-Bis(β-pyrrolidin-propinoyl)-biphenyl] | 0.33 ± 0.06 | 1.16 ± 0.09 | 
O=C(CCN1CCCCC1)c1ccc(-c2ccc(C(=O)CCN3CCCCC3)cc2)cc1 [Compound 19] | 0.096 ± 0.006 | 1.25 ± 0.15 | fold more potent than the lead compound (1) for inhibiting AChE (AChE (from rat brain); relative to compound 1): eight
O=C(CCN1CCOCC1)c1ccc(-c2ccc(C(=O)CCN3CCOCC3)cc2)cc1 [Compound 20] | 0.97 ± 0.08 | 0.72 ± 0.1 | 
O=C(CCN1CCCCCC1)c1ccc(-c2ccc(C(=O)CCN3CCCCCC3)cc2)cc1 [Compound 21, 4,4′-Bis(β-azepan-propinoyl)-biphenyl] | 1.43 ± 0.33 | 1.94 ± 0.07 | 
CN1CCN(CCC(=O)c2ccc(-c3ccc(C(=O)CCN4CCN(C)CC4)cc3)cc2)CC1 [Compound 22, 4,4′-Bis(β-4-methylpiperazin-propinoyl)-biphenyl] | 1.61 ± 0.38 | 13.8 ± 0.81 | 
O=C(CCCN1CCCCC1)c1ccc(-c2ccc(C(=O)CCCN3CCCCC3)cc2)cc1 [Compound 23, 1,1′-([1,1′-Biphenyl]-4,4′-diyl)bis(4-(piperidin-1-yl)butan-1-one)] | 1.32 ± 0.43 | 5.9 ± 0.4 | 
O=C(CCCCN1CCCCC1)c1ccc(-c2ccc(C(=O)CCCCN3CCCCC3)cc2)cc1 [Compound 24, 1,1′-([1,1′-Biphenyl]-4,4′-diyl)bis(5-(piperidin-1-yl)pentan-1-one)] | 0.82 ± 0.16 | 2.65 ± 0.11 | 
CN(C)CC(=O)c1ccc(CCc2ccc(C(=O)CN(C)C)cc2)cc1 [Compound 25, 1,1′-(Ethane-1,2-diylbis(4,1-phenylene))bis(2-(dimethylamino)ethanone)] | 62.3 ± 14.5 | 9.11 ± 2.55 | 
O=C(CN1CCCCC1)c1ccc(CCc2ccc(C(=O)CN3CCCCC3)cc2)cc1 [Compound 26, 1,1′-(Ethane-1,2-diylbis(4,1-phenylene))bis(2-(piperidin-1-yl)ethanone)] |  | 20.7 ± 5.44 | IC50 (AChE (from rat brain); [3]): 74.5 ± 8.5 µM
CN1CCN(CC(=O)c2ccc(CCc3ccc(C(=O)CN4CCN(C)CC4)cc3)cc2)CC1 [Compound 27, 1,1′-(Ethane-1,2-diylbis(4,1-phenylene))bis(2-(4-methylpiperazin-1-yl)ethanone)] | 74.1 ± 11.5 | 66.5 ± 17 | 
O=C(CN1CCOCC1)c1ccc(CCc2ccc(C(=O)CN3CCOCC3)cc2)cc1 [Compound 28] |  |  | IC50 (AChE (from rat brain); [1]): > 100 µM; IC50 (BuChE (from human serum); [2]): 6.3 ± 1.6 µM
CN(C)CCC(=O)c1ccc(CCc2ccc(C(=O)CCN(C)C)cc2)cc1 [Compound 29, 1,1′-(Ethane-1,2-diylbis(4,1-phenylene))bis(3-(dimethylamino)propan-1-one)] | 2.62 ± 0.63 | 1.21 ± 0.22 | 
O=C(CCN1CCCCC1)c1ccc(CCc2ccc(C(=O)CCN3CCCCC3)cc2)cc1 [Compound 30, 1,1′-(Ethane-1,2-diylbis(4,1-phenylene))bis(3-(piperidin-1-yl)propan-1-one)] | 0.5 ± 0.06 |  | IC50 (BuChE (from human serum); [2]): 3.14 ± 0.24 µM
O=C(CCN1CCOCC1)c1ccc(CCc2ccc(C(=O)CCN3CCOCC3)cc2)cc1 [Compound 31, 1,1′-(Ethane-1,2-diylbis(4,1-phenylene))bis(3-morpholinopropan-1-one)] | 3.53 ± 0.79 | 6.38 ± 1.26 | 
O=C(CCCN1CCCCC1)c1ccc(CCc2ccc(C(=O)CCCN3CCCCC3)cc2)cc1 [Compound 32, 1,1′-(Ethane-1,2-diylbis(4,1-phenylene))bis(4-(piperidin-1-yl)butan-1-one)] | 3.67 ± 0.92 | 19.2 ± 4.78 | 
O=C(CCCCN1CCCCC1)c1ccc(CCc2ccc(C(=O)CCCCN3CCCCC3)cc2)cc1 [Compound 33, 1,1′-(Ethane-1,2-diylbis(4,1-phenylene))bis(5-(piperidin-1-yl)pentan-1-one)] | 0.19 ± 0.08 | 1.64 ± 0.27 | 
OC(CCN1CCCCC1)c1ccc(-c2ccc(C(O)CCN3CCCCC3)cc2)cc1 (centres unmarked) [Compound 34, 1,1′-([1,1′-Biphenyl]-4,4′-diyl)bis(3-(piperidin-1-yl)propan-1-ol)] | 31.7 ± 10.2 | 13.8 ± 1.59 | 
OC(CCN1CCOCC1)c1ccc(-c2ccc(C(O)CCN3CCOCC3)cc2)cc1 (centres unmarked) [Compound 35, 1,1′-([1,1′-Biphenyl]-4,4′-diyl)bis(3-morpholinopropan-1-ol)] |  |  | IC50 (AChE (from rat brain); [1]): > 100 µM; IC50 (BuChE (from human serum); BuChE from human serum, footnote d: inactive up to 100 µM/L, read-out: IC50 µM ± SEM BuChE): > 100 µM
OC(CCN1CCCCC1)c1ccc(CCc2ccc(C(O)CCN3CCCCC3)cc2)cc1 (centres unmarked) [Compound 36, 1,1′-(Ethane-1,2-diylbis(4,1-phenylene))bis(3-(piperidin-1-yl)propan-1-ol)] |  |  | IC50 (AChE (from rat brain); [3]): 74.9 ± 35.6 µM; IC50 (BuChE (from human serum); [2]): 25.9 ± 6.81 µM
